The values that follow come from US8790934B2, “Nanoparticles” (Consejo Superior de Investigaciones Cientificas, priority 2000, dated 2014).

The data set is described as follows: solubility in methanol and water. The class given is physicochemical. The following applies: for solubility in methanol: methanol (MeOH). The method, then: Synthesis of glyconanoparticles: A solution of disulphide 1,2, or 3 (0.012M, 5.5 eq) in MeOH was added to a solution of tetrachloroauric acid (0.025M, 1 eq) in water. NaBH4 (1M, 22 eq) in water was added in small portions with rapid stirring. The black suspension that was formed was stirred for additional 2 hours and the solvent was then removed under vacuum. The crude of the reaction was washed with MeOH and was centrifuged for 10 minutes. The methanol was removed and the process was repeated several times until the starting material was not detected by TLC. The glyco-nanoparticles are completely insoluble in MeOH but quite soluble in water. • They were purified by dialysis: 50 mg of crude product was dissolved in 10 mL of water (NANOpure). This solution was loaded into 10 cm segments of cellulose ester dialysis membrane (SIGMA, MWCO=12400) and placed in 4 L of water (NANOpure). The dark glyconanoparticles solution was collected from the dialysis segments and lyophilized. The products obtained were free of salts and starting material (absence of signals due to disulphide and Na^+ in NMR).
The presentation of the carbohydrate molecules at the nanoparticles surface was then investigated. The molecular properties of the neoglycoconjugates 1, 2 and 3 suffer a differential change after attaching them to the gold surface. […] The Le^x derivative 3 is soluble in methanol and water, its nanoparticle 3-Au, however, is insoluble in methanol and very soluble in water. These differences in solubility can be used to purify the glyconanoparticles from the non-reacted disulfides by washing them with methanol. However, the most significant fact in these changes is that they reveal the influence of clustering at the surface on the carbohydrate presentation to the surrounding.

For `OCC1OC(OC2C(CO)OC(OCCCCCCCCCCCSSCCCCCCCCCCCOC3OC(CO)C(OC4OC(CO)C(O)C(O)C4O)C(O)C3O)C(O)C2O)C(O)C(O)C1O` (stereo not shown) [Compound 2], the solubility in methanol entry is “soluble” and the solubility in water entry was “insoluble”.

In the case of `CC(=O)N[C@H]1[C@H](OCCCCCCCCCCCSSCCCCCCCCCCCO[C@@H]2O[C@H](CO)[C@@H](O[C@@H]3O[C@H](CO)[C@H](O)[C@H](O)[C@H]3O)[C@H](O[C@@H]3O[C@@H](C)[C@@H](O)[C@@H](O)[C@@H]3O)[C@H]2NC(C)=O)O[C@H](CO)[C@@H](O[C@@H]2O[C@H](CO)[C@H](O)[C@H](O)[C@H]2O)[C@@H]1O[C@@H]1O[C@@H](C)[C@@H](O)[C@@H](O)[C@@H]1O` [Compound 3], the solubility in methanol entry is recorded as “soluble” and the solubility in water entry is recorded as “soluble”.
